Key:
[1] = target: T1, C-terminal domain (CTD) of human STING (Homo sapiens, UniProt Q86WV6); assay: STING binding FP assay I; parameters: recombinant human STING protein (155-379); conditions: 35 nM STING, 4 nM Probe 1
Method: The interaction between molecules and the C-terminal domain (CTD) of human STING was evaluated using a competition binding assay. In this assay, recombinant human STING protein (155-379) and a STING binding fluorescent probe were employed. Upon binding of the probe to STING, the rotation of the fluorescent probe is slowed due to the larger molecular size of the protein-bound complex. As a result, emitted light retains its plane of polarization, leading to an increase in fluorescence polarization. Molecules competing for the probe binding site displace the probe, which leads to rapid randomization of the polarization plane of the emitted light and a subsequent decrease in measured fluorescence polarization signal. Change in polarization was measured, allowing a comparative evaluation of the binding affinities of different compounds to the target protein.
The assay was performed in 96-well plates (ThermoFisher, cat.# 237108) containing 100µl : 10 µL test compound in 10% DMSO and buffer A (150 mM NaCl, 50 mM HEPES pH 7.5, 1 mM DTT) + 90 µL prepared master mix solution of: 4 nM fluorescein-labelled STING ligand (Probe 1; synthesis described above) in buffer A + 0.055% Tween-20 (v/v) and 35 nM STING in buffer A. Post mixing, plates were agitated at 600rpm and incubated for 20 min at room temperature. Subsequent measurements of the fluorescence polarization signal were made on a BioTek Synergy-H1 plate reader, using a polarization filter; Exc: 485/20 nm, Em: […]) with a gain-setting of 75. IC50 values were determined using a standard non-linear regression four-parameter curve fit in Graphpad Prism.
Target sequence in this assay (Q86WV6 155-379): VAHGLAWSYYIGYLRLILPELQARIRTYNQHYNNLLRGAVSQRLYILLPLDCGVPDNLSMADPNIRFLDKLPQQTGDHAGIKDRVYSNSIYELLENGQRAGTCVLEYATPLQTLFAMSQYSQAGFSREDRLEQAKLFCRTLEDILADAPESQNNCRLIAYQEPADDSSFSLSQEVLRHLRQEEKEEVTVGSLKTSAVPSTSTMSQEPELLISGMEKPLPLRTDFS

[2] = target: T1, C-terminal domain (CTD) of human STING; assay: STING binding TR-FRET assay; parameters: purchased CisBio 64BDSTGPEG; conditions: Human STING WT Binding Kit (CisBio)
Method: The affinity of molecules to the C-terminal domain (CTD) of human STING was determined using a commercial Human STING WT Binding Kit (CisBio, cat.# 64BDSTGPEG). In this time-resolved FRET assay, a recombinant human STING protein construct with a His-tag was employed. When bound to STING, a D2-labeled active site probe accepts the 620 nm emission from Anti-HIS-Tb-STING and an increase in fluorescence is measured at 665 nm. Molecules that compete for the probe binding site will result in a low 665 nm signal. The assay was run in CisBio low-volume white 96-well plates (catalog# 66PL96005) containing 5 µL compounds in Diluent Buffer (supplied with the CisBio kit). A solution of 1xSTING, 1x Anti-HIS-Tb and 1X D2-probe in TB detection buffer (kit supplied) was added to the plate. Plates were centrifuged for 2 min at 500 rpm, incubated for 60 min at room temperature in the dark, and then fluorescence emission at 665 nm following 330 nm xenon flash excitation on an BioTek synergy H1 multimode reader (Agilent) was measured. The plC50 values were determined using a standard four parameter curve fit in GraphPad Prism.
Target sequence in this assay (Q86WV6 135-379 limits assumed): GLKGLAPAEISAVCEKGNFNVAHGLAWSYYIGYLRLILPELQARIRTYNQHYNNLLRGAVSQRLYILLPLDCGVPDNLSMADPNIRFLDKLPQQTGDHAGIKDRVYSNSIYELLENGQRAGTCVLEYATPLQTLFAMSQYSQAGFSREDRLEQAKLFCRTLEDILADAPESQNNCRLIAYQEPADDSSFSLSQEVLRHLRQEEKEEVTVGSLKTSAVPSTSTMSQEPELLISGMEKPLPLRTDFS

SMILES: CCOC(=O)COC(CCn1c(=NC(=O)c2cc(C)nn2CC)n(C)c2cc(C(N)=O)ccc21)CCn1c(=NC(=O)c2cc(C)nn2CC)n(C)c2cc(C(N)=O)ccc21 (centres unmarked) [Building Block G-2, Ethyl (3-{5-carbamoyl-2-[(1-ethyl-3-methyl-5-pyrazolyl)carbonylimino]-3-methyl-2,3-dihydro-1H-1,3-benzimidazol-1-yl}-1-(2-{5-carbamoyl-2-[(1-ethyl-3-methyl-5-pyrazolyl)carbonylimino]-3-methyl-2,3-dihydro-1H-1,3-benzimidazol-1-yl}ethyl)propoxy)acetate]
- IC50 [1]: < 30 nM
- IC50 [2]: 0.452 nM

— patent EP4663632A1, “COMPOUNDS USEFUL FOR THE MODULATION OF THE ACTIVITY OF STING” (Sulis Therapeutics ApS, priority 2024, dated 2025)
